Test results taken from publication PMC9814779, “A triple farnesoid X receptor and peroxisome proliferator-activated receptor α/δ activator reverses hepatic fibrosis in diet-induced NASH in mice” (Communications Chemistry, 2020).
Read-outs that look alike come from different tables or passages of the source.

Key:
Format in all cases: cell-based
Parameters in all cases: Emax: dose or concentration left out as unconfirmed
[1] = biological target: T1, human PPARα ligand-binding domain (Gal4 chimera) (Homo sapiens, UniProt Q07869); assay: Gal4 hybrid reporter gene assay, PPARα; settings: for EC50: EC50 [μM] PPARα; for Emax: read-out: max. rel. act. PPARα
T1 construct: coding for the hinge region and LBD of the canonical isoform of the respective nuclear receptor; expressed in transfected cells; host or cells: HEK293T
T1 sequence (Q07869 239-466 limits assumed): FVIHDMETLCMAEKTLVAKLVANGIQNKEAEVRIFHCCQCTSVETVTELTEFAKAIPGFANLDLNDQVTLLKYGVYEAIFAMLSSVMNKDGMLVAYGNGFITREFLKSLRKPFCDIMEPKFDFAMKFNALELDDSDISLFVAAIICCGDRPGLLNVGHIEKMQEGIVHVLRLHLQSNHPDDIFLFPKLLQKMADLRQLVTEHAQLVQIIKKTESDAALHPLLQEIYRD

[2] = biological target: T2, human PPARδ ligand-binding domain (Gal4 chimera) (Homo sapiens, UniProt Q03181); assay: Gal4 hybrid reporter gene assay, PPARδ; settings: for Emax: read-out: max. rel. act. PPARδ
T2 construct: coding for the hinge region and LBD of the canonical isoform of the respective nuclear receptor; expressed in transfected cells; host or cells: HEK293T
T2 sequence (Q03181 211-439 limits assumed): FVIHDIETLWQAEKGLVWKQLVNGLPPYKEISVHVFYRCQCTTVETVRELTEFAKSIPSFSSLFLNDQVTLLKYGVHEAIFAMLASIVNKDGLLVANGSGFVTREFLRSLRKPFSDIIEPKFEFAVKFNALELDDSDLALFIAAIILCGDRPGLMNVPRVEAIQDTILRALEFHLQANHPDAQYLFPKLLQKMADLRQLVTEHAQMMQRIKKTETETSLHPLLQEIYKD

[3] = biological target: T3, human PPARγ ligand-binding domain (Gal4 chimera) (Homo sapiens, UniProt P37231); assay: Gal4 hybrid reporter gene assay, PPARγ; settings: for Emax: read-out: max. rel. act. PPARγ
T3 construct: coding for the hinge region and LBD of the canonical isoform of the respective nuclear receptor; expressed in transfected cells; host or cells: HEK293T
T3 sequence (P37231 238-503 limits assumed): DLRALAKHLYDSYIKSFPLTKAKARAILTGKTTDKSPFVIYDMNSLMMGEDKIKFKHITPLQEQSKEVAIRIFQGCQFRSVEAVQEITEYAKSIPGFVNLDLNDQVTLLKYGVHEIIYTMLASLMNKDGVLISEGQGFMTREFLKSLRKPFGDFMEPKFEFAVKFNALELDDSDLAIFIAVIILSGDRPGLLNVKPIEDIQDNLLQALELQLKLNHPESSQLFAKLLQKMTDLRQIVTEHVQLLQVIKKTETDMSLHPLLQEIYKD

[4] = biological target: T4, human FXR:retinoid X receptor (RXR) heterodimer (Homo sapiens, UniProt Q96RI1); assay: Full-length FXR reporter gene assay (BSEP response element) in HeLa cells; settings: for Emax: read-out: max. rel. act. FXR
T4 construct: pcDNA3-hFXR[32] and pSG5-hRXR[33] served for receptor overexpression in the full-length FXR assay; expressed in transfected cells; host or cells: HeLa
T4 sequence (P19793 whole entry): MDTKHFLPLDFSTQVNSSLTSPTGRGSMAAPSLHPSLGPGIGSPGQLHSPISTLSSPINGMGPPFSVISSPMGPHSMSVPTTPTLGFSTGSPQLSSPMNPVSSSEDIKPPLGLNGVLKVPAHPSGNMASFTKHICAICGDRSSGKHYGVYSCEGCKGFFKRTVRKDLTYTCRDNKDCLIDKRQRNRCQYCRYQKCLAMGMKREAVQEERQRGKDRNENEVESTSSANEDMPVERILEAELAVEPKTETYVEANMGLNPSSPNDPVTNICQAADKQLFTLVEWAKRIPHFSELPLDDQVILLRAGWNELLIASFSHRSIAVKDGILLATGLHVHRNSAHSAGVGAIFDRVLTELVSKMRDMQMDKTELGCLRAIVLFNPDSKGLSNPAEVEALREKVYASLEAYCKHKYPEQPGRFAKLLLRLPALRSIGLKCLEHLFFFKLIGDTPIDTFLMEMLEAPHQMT
T4 sequence (Q96RI1 whole entry): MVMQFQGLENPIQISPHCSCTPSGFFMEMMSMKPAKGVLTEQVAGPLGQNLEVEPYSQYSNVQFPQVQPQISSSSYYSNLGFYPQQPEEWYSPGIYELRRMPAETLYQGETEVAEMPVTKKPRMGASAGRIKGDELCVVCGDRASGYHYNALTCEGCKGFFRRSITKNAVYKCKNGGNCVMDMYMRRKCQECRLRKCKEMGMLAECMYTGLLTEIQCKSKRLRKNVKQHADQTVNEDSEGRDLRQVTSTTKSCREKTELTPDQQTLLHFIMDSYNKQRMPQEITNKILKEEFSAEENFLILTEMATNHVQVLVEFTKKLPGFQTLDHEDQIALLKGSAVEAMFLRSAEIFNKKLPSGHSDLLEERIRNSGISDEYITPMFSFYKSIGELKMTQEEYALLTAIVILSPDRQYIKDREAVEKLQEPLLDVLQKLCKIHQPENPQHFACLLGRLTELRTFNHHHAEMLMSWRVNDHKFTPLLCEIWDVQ

[5] = EC50 [μM] PPARδ, HEK293T, mean ± SEM, n = 3
[6] = HeLa, mean ± SEM, n = 3, read-out: EC50 [μM] FXR

Compound | EC50 ([1]; HEK293T, mean ± SEM, n = 3) [µM] | Emax [1] [%] | EC50 [2, 5] [µM] | Emax [2] [%] | EC50 [3] [µM] | Emax [3] [%] | EC50 [4, 6] [µM] | Emax ([4]; HeLa) [%] | EC50 [4] [µM] | EC50 ([2]; HEK293T, mean ± SEM, n = 3, read-out: EC50 [μM] PPARδ) [µM] | EC50 ([3]; HEK293T, mean ± SEM, n = 3, read-out: EC50 [μM] PPARγ) [µM] | EC50 [μM] PPARα ([1]; HEK293T, mean ± SEM, n = 3) | EC50 [μM] PPARδ ([2]; HEK293T, mean ± SEM, n = 3) | EC50 [μM] PPARγ ([3]; HEK293T, mean ± SEM, n = 3) | EC50 [μM] FXR ([4]; HeLa, mean ± SEM, n = 3)
Cc1cccc(C(=O)Nc2cccc(CCC(=O)O)c2)c1NC(=O)c1ccc2ccccc2c1 [compound 16] | 6.2 ± 0.1 | 31 | 2.7 ± 0.3 | 30 | 7.1 ± 1.3 | 6 | > 10 | – | – | – | – | – | – | – | –
Cc1ccc(C(=O)Nc2cccc(CCC(=O)O)c2)c(NC(=O)c2ccc3ccccc3c2)c1 [compound 17] | 1.7 ± 0.2 | 67 | 0.17 ± 0.02 | 34 | 1.4 ± 0.3 | 21 | 1.5 ± 0.1 | 21 | – | – | – | – | – | – | –
Cc1ccc(NC(=O)c2ccc3ccccc3c2)c(C(=O)Nc2cccc(CCC(=O)O)c2)c1 [compound 18] | 0.8 ± 0.02 | 25 | 0.21 ± 0.01 | 14 | 3.3 ± 0.1 | 23 | > 10 | – | – | – | – | – | – | – | –
Cc1cccc(NC(=O)c2ccc3ccccc3c2)c1C(=O)Nc1cccc(CCC(=O)O)c1 [compound 19] | 7.4 ± 0.4 | 15 | 6.3 ± 0.9 | 20 | 11 ± 2 | 2.5 | > 10 | – | – | – | – | – | – | – | –
O=C(O)CCc1cccc(NC(=O)c2ccc(Cl)cc2NC(=O)c2ccc3ccccc3c2)c1 [compound 20] | 3 ± 0.1 | 16 | 1.9 ± 0.2 | 16 | 1.4 ± 0.1 | 6 | > 10 | – | – | – | – | – | – | – | –
O=C(O)CCc1cccc(NC(=O)c2ccc(O)cc2NC(=O)c2ccc3ccccc3c2)c1 [compound 21] | 5.3 ± 0.5 | 54 | 2.4 ± 0.1 | 34 | 2.3 ± 0.3 | 20 | 4.5 ± 0.1 | 16 | – | – | – | – | – | – | –
COc1ccc(C(=O)Nc2cccc(CCC(=O)O)c2)c(NC(=O)c2ccc3ccccc3c2)c1 [compound 22] | 0.3 ± 0.04 | 43 | 0.06 ± 0.01 | 32 | 1.3 ± 0.1 | 27 | 11 ± 3 | 22 | – | – | – | – | – | – | –
O=C(O)CCc1cccc(NC(=O)c2ccc(OC(F)(F)F)cc2NC(=O)c2ccc3ccccc3c2)c1 [compound 23] | 1.1 ± 0.3 | 31 | 0.38 ± 0.06 | 30 | 1 ± 0.2 | 15 | – | 12 | 1.1 ± 0.1 | – | – | – | – | – | –
O=C(O)CCc1cccc(NC(=O)c2cc(Cl)ccc2NC(=O)c2ccc3ccccc3c2)c1 [compound 25] | 0.9 ± 0.2 | 42 | 0.28 ± 0.03 | 17 | 6 ± 1 | 26 | 2.6 ± 0.4 | 12 | – | – | – | – | – | – | –
O=C(O)CCc1cccc(NC(=O)c2cc(O)ccc2NC(=O)c2ccc3ccccc3c2)c1 [compound 26] | 8.9 ± 0.8 | 28 | 10 ± 2 | 24 | 13 ± 1 | 9 | > 10 | – | – | – | – | – | – | – | –
COc1ccc(NC(=O)c2ccc3ccccc3c2)c(C(=O)Nc2cccc(CCC(=O)O)c2)c1 [compound 27] | 0.23 ± 0.04 | 53 | 0.36 ± 0.01 | 23 | 2 ± 0.1 | 15 | > 10 | – | – | – | – | – | – | – | –
O=C(O)CCc1cccc(NC(=O)c2cc(OC(F)(F)F)ccc2NC(=O)c2ccc3ccccc3c2)c1 [compound 28] | 0.21 ± 0.02 | 54 | 0.1 ± 0.01 | 19 | 1.1 ± 0.2 | 18 | > 10 | – | – | – | – | – | – | – | –
O=C(O)CCc1cccc(NC(=O)c2cc3c(cc2NC(=O)c2ccc4ccccc4c2)OCO3)c1 [compound 29] | 0.46 ± 0.03 | 25 | 0.4 ± 0.1 | 31 | 0.9 ± 0.3 | 15 | 2.9 ± 0.6 | 14 | – | – | – | – | – | – | –
O=C(O)CCc1cccc(NC(=O)c2ccccc2NC(=O)c2ccc(-c3ccccc3)cc2)c1 [compound 30] | > 30 | – | – | 38 | – | 16 ± 10 | 1.3 ± 0.2 | 33 | – | 2.5 ± 0.5 | 1.6 ± 0.2 | – | – | – | –
O=C(O)CCc1cccc(NC(=O)c2ccccc2NC(=O)c2ccc(-c3ccco3)cc2)c1 [compound 31] | 1.8 ± 0.3 | 22 | 0.2 ± 0.01 | 43 | 2.2 ± 0.1 | 9 | 5.4 ± 0.1 | 23 | – | – | – | – | – | – | –
O=C(O)CCc1cccc(NC(=O)c2ccccc2NC(=O)c2ccc(-c3cccs3)cc2)c1 [compound 33] | 1.5 ± 0.1 | 27 | 0.64 ± 0.06 | 35 | 1.4 ± 0.2 | 11 | 1.7 ± 0.4 | 21 | – | – | – | – | – | – | –
O=C(O)CCc1cccc(NC(=O)c2ccccc2NC(=O)c2ccc(-c3ccsc3)cc2)c1 [compound 34] | 1.7 ± 0.1 | 32 | 1.6 ± 0.3 | 59 | 1.3 ± 0.2 | 17 | 0.6 ± 0.1 | 18 | – | – | – | – | – | – | –
O=C(O)CCc1cccc(NC(=O)c2ccccc2NC(=O)c2ccc(-c3ccon3)cc2)c1 [compound 35] | 8 ± 0.4 | 11 | 5.6 ± 0.4 | 29 | 5.8 ± 0.8 | 30 | 6.8 ± 0.6 | 32 | – | – | – | – | – | – | –
O=C(O)CCc1cccc(NC(=O)c2ccccc2NC(=O)c2ccc(-c3cnoc3)cc2)c1 [compound 36] | – | – | – | – | – | – | – | – | – | – | – | Unstable | Unstable | Unstable | Unstable
O=C(O)CCc1cccc(NC(=O)c2ccccc2NC(=O)c2ccc(-c3cocn3)cc2)c1 [compound 37] | 20 ± 1 | 36 | 12 ± 1 | 52 | 6 ± 1 | 15 | 6.9 ± 0.3 | 41 | – | – | – | – | – | – | –
